Results from US4845215A, “Purine derivative” (Nippon Kayaku Kabushiki Kaisha, priority 1987, dated 1989).

Assays:
mouse = experiment: Acute toxicity (LD50) on mouse; assay type: in vivo; conditions: iv
Method: (§1) (3) The acute toxicity (LD50) of the compound of formula (1) on mouse was 200 mg/kg (iv) or above which is weaker than the toxicities of various known nucleic acid type antibiotics.

[1] = Acute toxicity (LD50) on mouse; assay type: in vivo; conditions: in vivo, iv
Method: as §1

MT-4 cell = experiment: Cytopathic effect on MT-4 cell without virus (microscopy); assay type: cell-based; conditions: summary in words
Method: (§2) About 100,000 cells/ml of MT-4 cell was introduced into a tray having 24 holes. Further, 100 microliters of a solution containing a predetermined quantity of the compound of the present invention was added, and then it was cultured in a 5% (v/v) carbon dioxide gas incubator at 37° C. for 5 hours. Subsequently, 10^3 to 10^4 infection units of HIV was added and cultured for 4 days. Then, a part of the culture fluid was applied to a slide glass and immobilized with acetone, and development of virus antigen was examined by the fluorescent antibody technique. Cytopathic effect of the compound of the invention on MT-4 cell was examined microscopically without adding virus.

[2] = Solubilities into solvents; assay type: physicochemical
From the text: (8) Solubilities into solvents

[3] = test system: Human Immunodeficiency Virus (HIV); experiment: Anti-HIV activity: development of virus antigen in MT-4 cell (fluorescent antibody technique); assay type: cell-based; conditions: for Development of virus antigen (%): 4 days, DMSO only 80 to 90%
Method: (b) Anti-"Human Immunodeficiency Virus (HIV)" activity.
as §2, with “technique.” for “technique. Cytopathic effect of the compound of the invention on MT-4 cell was examined microscopically without adding virus.”
A serum of an AIDS patient was used as the primary antibody of the fluorescent antibody technique, and FITC-labelled anti-human IgG was used as its secondary antibody.
The compound of the present invention was used in the form of a solution
in DMSO. In DMSO itself only, development of virus antigen was 80 to 90%.

[4] = test system: Herpes Simplex virus type-II; experiment: Antiviral activity by CPE (cytopathic effect) of Herpes Simplex virus type-II on Vevo cell; assay type: cell-based; conditions: read-out: Inhibition rate (%)
Method: (a) Its antiviral activity was measured by observing CPE (cytopathic effect) of Herpes Simplex virus type-II on the Vevo cell originated from the kidney of Cercopithecus aetiops.

[5] = test system: T Lymphocyte (spleen cell of BALB/C mouse); experiment: Inhibition of Blastogenesis Reaction of T Lymphocyte by Con A (3H-thymidine take-up); assay type: cell-based; conditions: Con A 5 micrograms/liter, 37° C., 72 hours
Method: Inhibition of Blastogenesis Reaction of T Lymphocyte by Con A.
Spleen cell of BALB/C mouse was dividingly poured into a microplate so that the number of cells came to 2×10^5 /0.2 ml/well. To each of all the wells other than control group was added the compound of the present invention having varied concentration. Further, 5 […] of Con A was added to all the wells. Then, the cell suspensions were cultured at 37° C. for 72 hours in 5% carbon dioxide gas incubator. The blastogenesis reaction of lymphocyte was examined by adding 1μCi/well of ^3 H-thymidine 6 hours before the completion of the culture and measuring its take-up into cultured cells by means of liquid scintillation counter. If the take-up count at the time when only Con A was added was expressed by Adpm and the take-up count at the time when Con A and drug were added was expressed by Bdpm, (1 - Bdpm/Adpm)×100 could be regarded as the inhibitory rate of each drug on blastogenesis.

## O=c1[nH]cnc2c1ncn2[C@@H]1O[C@H](CO)[C@H]1CO [compound of formula (1), 9-[(2'R,3'R,4'S)-3',4'-bis-(hydroxymethyl)-2'-oxetanyl]-hypoxanthine]
mouse
  acute toxicity compared with various known nucleic acid type antibiotics: weaker
[1]
  LD50: ≥ 200 mg/kg
MT-4 cell
  cytopathic effect (summary): small
[2]; acetone
  Solubility: insoluble or only slightly soluble
[2]; benzene
  Solubility: insoluble or only slightly soluble
[2]; dimethyl sulfoxide
  Solubility: soluble
[2]; ether
  Solubility: insoluble or only slightly soluble
[2]; ethyl acetate
  Solubility: insoluble or only slightly soluble
[2]; methanol
  Solubility: soluble
[2]; propanol
  Solubility: insoluble or only slightly soluble
[2]; water
  Solubility: soluble
[3]; 1 μg/ml
  Development of virus antigen (%): 40%
[3]; 10 μg/ml
  Development of virus antigen (%): 10%
[3]; 100 μg/ml
  Development of virus antigen (%): 2%
[3]; summary in words
  growth-inhibitory action of HIV: marked
[4]; 31.3 mcg/well
  inhibition at 31.3 µg/disc: 8%
[4]; 62.5 mcg/well
  inhibition at 62.5 µg/disc: 33%
[4]; 125 mcg/well
  inhibition at 125 µg/disc: 75%
[5]
  IC50: 14.5 µg/mL
